Source: patent US11377425B1, “Small molecule modulators of IL-17” (LEO Pharma A/S, priority 2018, dated 2022)

Target: T1, human IL-17AA (Homo sapiens, UniProt Q16552)
T1 construct: host or cells: HEK (human embryonic kidney) cells
T1 sequence (Q16552 24-155): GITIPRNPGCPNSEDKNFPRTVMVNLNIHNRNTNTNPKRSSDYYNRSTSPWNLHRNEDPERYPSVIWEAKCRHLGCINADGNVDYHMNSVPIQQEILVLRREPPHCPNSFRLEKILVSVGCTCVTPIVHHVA
Assay: IL-8 release assay in human epithelial keratinocytes adult (HEKa)
Format: cell-based
Details: HEKa cells, 3 ng/mL HEK-human IL-17AA + 10 ng/mL human TNFalpha; read-out: Rel EC50 IL-8 release assay
Experimental: Example 138: IL-8 Release Assay in Human Epithelial Keratinocytes Adult (HEKa)
Keratinocytes were seeded at 3500 cells/well in 384-well ViewPlates (Perkin Elmer) in Epilife medium (Thermo Fisher) containing human keratinocyte growth supplement (HKGS) without hydrocortisone and incubated in a humid incubator at 37° C. 5% CO2, overnight. The following day growth medium was removed and 25 μl fresh Epilife medium added. 75 nL test compound in 100% DMSO was added into each well reserved for test compounds, by the use of acoustic pipetting. The remaining wells received an equal volume of DMSO only, as vehicle control, or terfenadine in DMSO, as a positive control for any cytotoxic compounds. Subsequently, another 25 μL Epilife medium was added to each well. Finally, wells containing test compounds and wells prepared to yield maximum stimulation received […] of 9 ng/mL recombinant, human embryonic kidney cell (HEK)-derived human IL-17AA+30 ng/mL human TNF-alpha, in Epilife medium. Wells prepared to define 100% inhibition of IL-17 effects received 25 μL of 30 ng/mL human TNF-alpha alone, in Epilife medium. Final concentrations were 3 ng/mL HEK-human IL-17AA+10 ng/mL human TNFalpha (maximum stimulation) and 10 ng/mL human TNFalpha alone (100% inhibition, Emax), respectively. Cells were incubated for 68-72 hours in the incubator. IL-8 released from the cells was measured by the use of a commercial homogenous time-resolved fluorescence (HTRF) assay (CisBio). 2 μL cell culture supernatant was transferred to a 384-well Proxiplate. 5 μL HTRF reagent was added and the plates incubated sealed in the dark for 3-22 hours at room temperature. Time-resolved fluorescence was read at 665 vs 620 nm, with excitation at 320 nm, and IL-8 levels calculated as percent of controls. Reduction of the amount of secreted IL-8 indicates decreased IL-17 signaling. Concentration response curves were fitted by the use of a four-parameter logistic equation. Relative IC50 and Emax were reported from curves showing acceptable fit (r^2>0.9). Cytotoxicity was measured in the cell-containing Viewplates following addition of 7 μL PrestoBlue (Thermo Fisher) and incubation for 2.5-3 hours at room temperature, by measuring fluorescence at 615 nm (excitation at 535 nm). Fluorescence was directly proportional to the amount of metabolic activity. Reduction of fluorescence signal indicated cytotoxicity.
Compounds of the present invention were tested in the IL-8 release assay in human epithelial keratinocytes.
Compounds having a Relative EC50 of X; wherein X<100 nM; are indicated with *
Compounds having a Relative EC50 of X; wherein 100 nM<X<1000 nM; are indicated with **
Compounds having a Relative EC50 of X; wherein 1000 nM<X; are indicated with ***

SMILES | EC50 [µM]
Cc1n[nH]c(C)c1-c1ccc(NC(=O)C(NC(=O)c2ccnn2C)C(C)c2ccccc2)cc1 (single isomer, unassigned) [Example 236] | > 1
Cc1n[nH]c(C)c1-c1ccc(NC(=O)C(NC(=O)c2ccnn2C)C2CCc3c(F)cccc32)cc1 (single isomer, unassigned) [Example 247] | < 0.1
Cc1n[nH]c(C)c1-c1ccc(NC(=O)C(NC(=O)c2ccnn2C)[C@H]2CCCc3c(F)cc(F)cc32)cc1 (single isomer, unassigned) [Example 255] | < 0.1
CCC(C1CCCCC1)C(NC(=O)c1ccnn1C)C(=O)Nc1ccc(-c2c(C)n[nH]c2C)cc1 (single isomer, unassigned) [Example 257] | < 0.1
Cc1n[nH]c(C)c1-c1ccc(NC(=O)C(NC(=O)c2ccnn2C)C2CCCc3cc(F)ccc32)cc1 (single isomer, unassigned) [Example 259] | > 1
Cc1n[nH]c(C)c1-c1ccc(NC(=O)[C@@H](NC(=O)c2ccnn2C)C2CCC(C(F)(F)F)CC2)cc1 (single isomer, unassigned) [Example 269] | 0.1 to 1
Cc1n[nH]c(C)c1-c1ccc(NC(=O)C(NC(=O)c2ccnn2C)C(c2ccccc2)C2CCC2)cc1 (single isomer, unassigned) [Example 299, N-[1-[cyclobutyl(phenyl)methyl]-2-[4-(3,5-dimethyl-1H-pyrazol-4-yl)anilino]-2-oxo-ethyl]-2-methyl-pyrazole-3-carboxamide] | < 0.1
Cc1n[nH]c(C)c1-c1ccc(NC(=O)C(NC(=O)c2ccnn2C)C(c2ccccc2)C2CC2)cc1 (single isomer, unassigned) [Example 301, N-[1-[cyclopropyl(phenyl)methyl]-2-[4-(3,5-dimethyl-1H-pyrazol-4-yl)anilino]-2-oxo-ethyl]-2-methyl-pyrazole-3-carboxamide] | 0.1 to 1
Cc1n[nH]c(C)c1-c1ccc(NC(=O)C(NC(=O)c2ccnn2C)C(c2ccccc2)C2CC2)cc1 (single isomer, unassigned) [Example 302, N-[1-[cyclopropyl(phenyl)methyl]-2-[4-(3,5-dimethyl-1H-pyrazol-4-yl)anilino]-2-oxo-ethyl]-2-methyl-pyrazole-3-carboxamide] | > 1
Cc1n[nH]c(C)c1-c1ccc(NC(=O)C(NC(=O)c2ccnn2C)C(c2ccccc2)C2CC2)cc1 (single isomer, unassigned) [Example 304, N-[1-[cyclopropyl(phenyl)methyl]-2-[4-(3,5-dimethyl-1H-pyrazol-4-yl)anilino]-2-oxo-ethyl]-2-methyl-pyrazole-3-carboxamide] | > 1
Cn1cncc1-c1ccc(NC(=O)C(NC(=O)OC(C)(C)C)C(c2ccccc2)C2CCC2)cc1 (single isomer, unassigned) [Example 311, tert-butyl N-[1-[cyclobutyl(phenyl)methyl]-2-[4-(3-methylimidazol-4-yl)anilino]-2-oxo-ethyl]carbamate] | > 1
Cn1cncc1-c1ccc(NC(=O)[C@@H](NC(=O)OC(C)(C)C)C(C2CCCCC2)C2CCCC2)cc1 (single isomer, unassigned) [Example 313] | > 1

Next, values leading:

EC50 [µM] | SMILES
> 1 | Cc1n[nH]c(C)c1-c1ccc(NC(=O)C(NC(=O)c2ccnn2C)C(C)c2ccccc2)cc1 (single isomer, unassigned) [Example 235]
> 1 | Cc1n[nH]c(C)c1-c1ccc(NC(=O)C(NC(=O)c2ccnn2C)C(C)c2ccccc2)cc1 (single isomer, unassigned) [Example 237]
< 0.1 | Cc1n[nH]c(C)c1-c1ccc(NC(=O)[C@@H](NC(=O)c2ccnn2C)C2CCCC(C)(C)C2)cc1 (single isomer, unassigned) [Example 239]
> 1 | Cc1n[nH]c(C)c1-c1ccc(NC(=O)C(NC(=O)c2ccnn2C)C2CCc3c(F)cccc32)cc1 (single isomer, unassigned) [Example 248]
0.1 to 1 | Cc1n[nH]c(C)c1-c1ccc(NC(=O)[C@@H](NC(=O)c2ccnn2C)C2CC3CCC2CC3)cc1 (single isomer, unassigned) [Example 254]
< 0.1 | Cc1n[nH]c(C)c1-c1ccc(NC(=O)C(NC(=O)c2ccnn2C)[C@H]2CCCc3c(F)cccc32)cc1 (single isomer, unassigned) [Example 256]
< 0.1 | CCC(C1CCCCC1)C(NC(=O)c1ccnn1C)C(=O)Nc1ccc(-c2c(C)n[nH]c2C)cc1 (single isomer, unassigned) [Example 258]
< 0.1 | Cc1n[nH]c(C)c1-c1ccc(NC(=O)C(NC(=O)c2ccnn2C)C2CCCc3cc(F)ccc32)cc1 (single isomer, unassigned) [Example 260]
< 0.1 | Cc1n[nH]c(C)c1-c1ccc(NC(=O)[C@@H](NC(=O)c2ccnn2C)C2C[C@@H](C)C[C@@H](C)C2)cc1 (single isomer, unassigned) [Example 268]
> 1 | Cc1n[nH]c(C)c1-c1ccc(NC(=O)C(NC(=O)c2ccnn2C)C(c2ccccc2)C2CCC2)cc1 (single isomer, unassigned) [Example 300, N-[1-[cyclobutyl(phenyl)methyl]-2-[4-(3,5-dimethyl-1H-pyrazol-4-yl)anilino]-2-oxo-ethyl]-2-methyl-pyrazole-3-carboxamide]
0.1 to 1 | Cc1n[nH]c(C)c1-c1ccc(NC(=O)C(NC(=O)c2ccnn2C)C(c2ccccc2)C2CC2)cc1 (single isomer, unassigned) [Example 303, N-[1-[cyclopropyl(phenyl)methyl]-2-[4-(3,5-dimethyl-1H-pyrazol-4-yl)anilino]-2-oxo-ethyl]-2-methyl-pyrazole-3-carboxamide]
> 1 | Cn1cncc1-c1ccc(NC(=O)C(NC(=O)OC(C)(C)C)C(c2ccccc2)C2CCC2)cc1 (single isomer, unassigned) [Example 310, tert-butyl N-[1-[cyclobutyl(phenyl)methyl]-2-[4-(3-methylimidazol-4-yl)anilino]-2-oxo-ethyl]carbamate]
> 1 | Cn1cncc1-c1ccc(NC(=O)[C@@H](NC(=O)OC(C)(C)C)C(C2CCCCC2)C2CCCC2)cc1 (single isomer, unassigned) [Example 312]
> 1 | Cc1ncn(C)c1-c1ccc(NC(=O)C(NC(=O)c2ccnn2C)C2CCC(F)(F)CC2)cc1 (single isomer, unassigned) [Example 333, N-[1-(4,4-difluorocyclohexyl)-2-[4-(3,5-dimethylimidazol-4-yl)anilino]-2-oxo-ethyl]-2-methyl-pyrazole-3-carboxamide]
> 1 | Cc1ncn(C)c1-c1ccc(NC(=O)C(NC(=O)c2ccnn2C)C2CCC(F)(F)CC2)cc1 (single isomer, unassigned) [Example 334, N-[1-(4,4-difluorocyclohexyl)-2-[4-(3,5-dimethylimidazol-4-yl)anilino]-2-oxo-ethyl]-2-methyl-pyrazole-3-carboxamide]
0.1 to 1 | Cn1cncc1-c1ccc(NC(=O)[C@@H](NC(=O)c2ccnn2C)C(C2CCCCC2)C2CCCC2)cc1 (single isomer, unassigned) [Example 339A]
0.1 to 1 | Cn1cncc1-c1ccc(NC(=O)[C@@H](NC(=O)c2ccnn2C)C(C2CCCCC2)C2CCCC2)cc1 (single isomer, unassigned) [Example 339B]
